Reference: paper PMC10382584, “Macrocyclization of linear molecules by deep learning to facilitate macrocyclic drug candidates discovery” (Nature Communications, 2023)

Assays:
Experiment in all cases: biochemical
Set-up in all cases: DiscoveRx KINOMEscan competition binding, percent of DMSO control signal at 100 nM
Settings in all cases: read-out: Fig. 4a / Percent Control / Compound 1; percent of DMSO control, competition binding
[1] = target: MAP4K2 (Homo sapiens, UniProt Q12851)
[2] = target: CDKL5 (Homo sapiens, UniProt O76039)
Sequence of CDKL5 (O76039 whole entry): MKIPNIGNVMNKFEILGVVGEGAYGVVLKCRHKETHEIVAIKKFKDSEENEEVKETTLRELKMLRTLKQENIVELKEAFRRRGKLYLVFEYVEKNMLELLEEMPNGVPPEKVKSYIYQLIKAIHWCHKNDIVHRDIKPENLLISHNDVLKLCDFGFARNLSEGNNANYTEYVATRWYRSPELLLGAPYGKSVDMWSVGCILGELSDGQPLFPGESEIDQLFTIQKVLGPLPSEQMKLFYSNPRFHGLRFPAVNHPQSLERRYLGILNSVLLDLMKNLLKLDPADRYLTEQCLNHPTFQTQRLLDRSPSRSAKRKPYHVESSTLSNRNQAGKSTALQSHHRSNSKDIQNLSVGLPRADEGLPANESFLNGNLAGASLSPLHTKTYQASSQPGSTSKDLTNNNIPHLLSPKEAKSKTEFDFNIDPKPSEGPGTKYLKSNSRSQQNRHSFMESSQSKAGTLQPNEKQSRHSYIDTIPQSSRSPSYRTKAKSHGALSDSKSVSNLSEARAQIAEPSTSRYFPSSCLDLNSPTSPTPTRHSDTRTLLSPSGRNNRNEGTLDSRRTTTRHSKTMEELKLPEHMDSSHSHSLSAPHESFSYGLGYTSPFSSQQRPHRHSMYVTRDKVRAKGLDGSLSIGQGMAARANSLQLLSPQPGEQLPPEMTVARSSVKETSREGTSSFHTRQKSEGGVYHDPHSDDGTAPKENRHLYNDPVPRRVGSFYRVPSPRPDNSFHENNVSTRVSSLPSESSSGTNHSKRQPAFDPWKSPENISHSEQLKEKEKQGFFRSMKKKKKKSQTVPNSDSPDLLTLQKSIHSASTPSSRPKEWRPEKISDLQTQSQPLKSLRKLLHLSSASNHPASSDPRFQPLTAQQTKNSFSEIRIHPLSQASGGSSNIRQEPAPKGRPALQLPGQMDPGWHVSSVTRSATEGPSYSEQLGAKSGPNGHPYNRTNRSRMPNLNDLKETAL

[3] = target: T1, p38-alpha (Homo sapiens, UniProt Q16539)
T1 construct: gene MAPK14

[4] = target: FER (Homo sapiens, UniProt P16591)
[5] = target: FLT3-autoinhibited (Homo sapiens, UniProt P36888)
[6] = target: ACVR1B (Homo sapiens, UniProt P36896)
[7] = target: T2, MLK1 (Homo sapiens, UniProt P80192)
T2 construct: gene MAP3K9

[8] = target: PRKCE (Homo sapiens, UniProt Q02156)
[9] = target: CSF1R (Homo sapiens, UniProt P07333)
[10] = target: PIP5K1C (Homo sapiens, UniProt O60331)
[11] = target: FLT3(R834Q) (Homo sapiens, UniProt P36888, R834Q)
[12] = target: CSNK1A1 (Homo sapiens, UniProt P48729)
Sequence of CSNK1A1 (P48729 whole entry): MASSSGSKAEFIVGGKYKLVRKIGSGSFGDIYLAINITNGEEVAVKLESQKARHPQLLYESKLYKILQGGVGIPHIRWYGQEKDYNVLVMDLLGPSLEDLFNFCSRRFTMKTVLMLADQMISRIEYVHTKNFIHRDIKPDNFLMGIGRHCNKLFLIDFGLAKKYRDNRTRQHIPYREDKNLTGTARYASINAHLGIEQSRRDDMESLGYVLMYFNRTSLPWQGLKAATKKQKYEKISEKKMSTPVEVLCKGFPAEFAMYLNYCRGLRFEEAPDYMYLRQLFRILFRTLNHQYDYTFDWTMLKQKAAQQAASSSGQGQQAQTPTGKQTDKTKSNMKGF

[13] = target: RET(V804L) (Homo sapiens, UniProt P07949, V804L)
Sequence of RET(V804L) (P07949 whole entry V804L): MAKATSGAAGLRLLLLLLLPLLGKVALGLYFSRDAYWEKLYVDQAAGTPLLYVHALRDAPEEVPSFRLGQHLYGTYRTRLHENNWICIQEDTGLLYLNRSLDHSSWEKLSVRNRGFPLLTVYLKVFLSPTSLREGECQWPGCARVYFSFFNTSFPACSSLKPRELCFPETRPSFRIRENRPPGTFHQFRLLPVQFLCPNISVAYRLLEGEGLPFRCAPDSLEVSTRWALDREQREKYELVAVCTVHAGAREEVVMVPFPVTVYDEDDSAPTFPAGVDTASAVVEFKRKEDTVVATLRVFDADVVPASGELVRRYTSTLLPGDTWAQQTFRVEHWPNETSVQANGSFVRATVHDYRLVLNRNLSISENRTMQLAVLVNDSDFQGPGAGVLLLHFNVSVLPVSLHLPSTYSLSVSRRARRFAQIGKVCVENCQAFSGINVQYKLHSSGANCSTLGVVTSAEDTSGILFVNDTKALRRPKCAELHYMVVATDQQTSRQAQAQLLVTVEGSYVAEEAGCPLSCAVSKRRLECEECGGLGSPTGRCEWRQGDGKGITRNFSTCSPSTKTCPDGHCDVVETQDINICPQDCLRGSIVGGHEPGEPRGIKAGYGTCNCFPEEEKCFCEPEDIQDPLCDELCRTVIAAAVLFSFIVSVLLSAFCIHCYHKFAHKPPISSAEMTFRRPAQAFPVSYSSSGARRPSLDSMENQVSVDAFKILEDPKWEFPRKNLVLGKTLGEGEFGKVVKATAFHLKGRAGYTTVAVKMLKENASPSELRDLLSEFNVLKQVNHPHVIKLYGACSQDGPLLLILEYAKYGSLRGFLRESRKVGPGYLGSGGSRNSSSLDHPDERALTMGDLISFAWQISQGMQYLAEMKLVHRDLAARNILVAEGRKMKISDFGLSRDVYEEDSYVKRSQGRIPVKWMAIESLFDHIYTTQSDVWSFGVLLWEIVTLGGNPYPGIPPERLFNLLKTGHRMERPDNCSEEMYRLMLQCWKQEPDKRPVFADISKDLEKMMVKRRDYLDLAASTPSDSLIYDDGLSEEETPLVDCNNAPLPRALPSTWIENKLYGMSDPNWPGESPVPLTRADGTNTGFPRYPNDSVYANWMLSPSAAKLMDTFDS

[14] = target: PRKCD (Homo sapiens, UniProt Q05655)
[15] = target: PAK1 (Homo sapiens, UniProt Q13153)
[16] = target: MYLK (Homo sapiens, UniProt Q15746)
[17] = target: FGFR3 (Homo sapiens, UniProt P22607)
Sequence of FGFR3 (P22607 whole entry): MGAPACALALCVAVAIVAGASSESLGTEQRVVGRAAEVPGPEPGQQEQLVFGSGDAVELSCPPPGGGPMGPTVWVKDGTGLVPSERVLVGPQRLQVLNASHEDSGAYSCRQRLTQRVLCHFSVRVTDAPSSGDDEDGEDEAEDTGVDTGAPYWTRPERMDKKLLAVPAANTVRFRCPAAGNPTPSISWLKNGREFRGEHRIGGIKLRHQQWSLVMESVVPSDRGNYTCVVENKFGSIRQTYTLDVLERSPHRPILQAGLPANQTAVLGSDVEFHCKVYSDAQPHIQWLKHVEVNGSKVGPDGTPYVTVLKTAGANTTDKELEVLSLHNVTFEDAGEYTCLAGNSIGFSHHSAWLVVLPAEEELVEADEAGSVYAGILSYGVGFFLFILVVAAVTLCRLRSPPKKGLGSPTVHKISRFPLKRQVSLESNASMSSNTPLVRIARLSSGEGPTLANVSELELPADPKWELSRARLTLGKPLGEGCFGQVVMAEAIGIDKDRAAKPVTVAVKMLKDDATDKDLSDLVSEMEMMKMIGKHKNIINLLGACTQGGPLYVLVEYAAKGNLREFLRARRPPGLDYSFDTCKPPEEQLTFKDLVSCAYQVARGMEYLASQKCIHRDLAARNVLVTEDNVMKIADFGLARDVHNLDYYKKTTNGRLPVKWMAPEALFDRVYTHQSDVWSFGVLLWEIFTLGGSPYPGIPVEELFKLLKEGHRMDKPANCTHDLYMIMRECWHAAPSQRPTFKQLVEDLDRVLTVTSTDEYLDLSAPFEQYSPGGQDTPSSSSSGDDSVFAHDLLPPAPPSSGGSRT

[18] = target: T3, ABL1-nonphosphorylated (Homo sapiens, UniProt P00519)
T3 construct: nonphosphorylated

[19] = target: HCK (Homo sapiens, UniProt P08631)
[20] = target: CAMK4 (Homo sapiens, UniProt Q16566)
[21] = target: T4, PYK2 (Homo sapiens, UniProt Q14289)
T4 construct: gene PTK2B
T4 sequence (Q14289 whole entry): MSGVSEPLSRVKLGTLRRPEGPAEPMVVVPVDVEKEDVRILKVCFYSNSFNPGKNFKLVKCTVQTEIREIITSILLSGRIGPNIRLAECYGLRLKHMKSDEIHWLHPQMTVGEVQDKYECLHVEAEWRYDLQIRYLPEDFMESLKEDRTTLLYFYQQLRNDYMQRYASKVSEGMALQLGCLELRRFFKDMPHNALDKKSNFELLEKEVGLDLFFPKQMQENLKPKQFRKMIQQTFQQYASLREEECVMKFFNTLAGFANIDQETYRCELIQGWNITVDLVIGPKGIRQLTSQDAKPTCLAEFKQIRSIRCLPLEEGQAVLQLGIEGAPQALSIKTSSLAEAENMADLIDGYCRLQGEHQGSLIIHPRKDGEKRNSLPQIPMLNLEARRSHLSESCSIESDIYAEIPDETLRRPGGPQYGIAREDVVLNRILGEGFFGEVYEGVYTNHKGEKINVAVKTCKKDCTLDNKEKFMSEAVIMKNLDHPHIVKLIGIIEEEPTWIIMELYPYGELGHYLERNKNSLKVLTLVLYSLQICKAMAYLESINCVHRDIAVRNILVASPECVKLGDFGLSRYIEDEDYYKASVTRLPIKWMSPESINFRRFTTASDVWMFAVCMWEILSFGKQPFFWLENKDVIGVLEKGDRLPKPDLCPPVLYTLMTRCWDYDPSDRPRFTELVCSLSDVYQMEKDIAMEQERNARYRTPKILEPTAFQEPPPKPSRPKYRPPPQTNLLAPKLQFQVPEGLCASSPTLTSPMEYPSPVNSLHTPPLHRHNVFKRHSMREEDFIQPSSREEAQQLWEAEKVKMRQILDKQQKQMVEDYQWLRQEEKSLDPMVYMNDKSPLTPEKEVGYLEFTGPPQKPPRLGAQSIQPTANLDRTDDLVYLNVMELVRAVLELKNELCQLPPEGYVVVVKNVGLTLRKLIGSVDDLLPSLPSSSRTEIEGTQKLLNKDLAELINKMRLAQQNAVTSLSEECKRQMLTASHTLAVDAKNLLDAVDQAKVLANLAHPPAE

[22] = target: T5, JAK3(JH1domain-catalytic) (Homo sapiens, UniProt P52333)
T5 construct: JH1domain-catalytic

[23] = target: EGFR(L858R,T790M) (Homo sapiens, UniProt P00533, L858R/T790M)
[24] = target: TLK2 (Homo sapiens, UniProt Q86UE8)
[25] = target: T6, IKK-alpha (Homo sapiens, UniProt O15111)
T6 construct: gene CHUK
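Note: KINOMEscan kinase panel binding assay, signal normalized between DMSO as 100% and a positive control compound as 0%.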

Sequence of MAP4K2 (Q12851 whole entry): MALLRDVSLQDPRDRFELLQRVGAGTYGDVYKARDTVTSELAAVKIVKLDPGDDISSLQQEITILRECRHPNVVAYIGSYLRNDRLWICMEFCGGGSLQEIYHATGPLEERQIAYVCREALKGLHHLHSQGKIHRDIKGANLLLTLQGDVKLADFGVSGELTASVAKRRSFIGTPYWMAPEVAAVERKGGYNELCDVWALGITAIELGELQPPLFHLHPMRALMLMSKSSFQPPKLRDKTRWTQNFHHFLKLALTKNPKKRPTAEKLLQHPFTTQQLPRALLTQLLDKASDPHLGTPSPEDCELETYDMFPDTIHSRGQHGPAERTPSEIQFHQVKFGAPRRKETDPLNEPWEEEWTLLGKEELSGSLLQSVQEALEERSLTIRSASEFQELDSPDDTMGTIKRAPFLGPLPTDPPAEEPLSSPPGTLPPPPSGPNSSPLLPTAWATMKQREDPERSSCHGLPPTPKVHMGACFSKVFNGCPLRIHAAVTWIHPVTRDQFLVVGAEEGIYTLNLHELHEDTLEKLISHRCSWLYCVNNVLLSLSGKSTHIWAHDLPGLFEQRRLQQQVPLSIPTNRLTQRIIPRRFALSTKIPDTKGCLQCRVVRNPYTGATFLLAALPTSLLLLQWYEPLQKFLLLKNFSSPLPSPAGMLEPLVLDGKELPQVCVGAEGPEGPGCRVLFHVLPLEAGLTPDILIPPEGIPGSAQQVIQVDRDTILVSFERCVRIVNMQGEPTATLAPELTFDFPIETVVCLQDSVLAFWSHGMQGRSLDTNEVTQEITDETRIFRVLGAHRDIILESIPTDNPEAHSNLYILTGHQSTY

`Cc1cnc2nc1Nc1cccc(c1)COCc1cc(ccc1OCCN1CCCC1)N2` [Compound 1] was tested, and the remaining binding at 0.1 µM [1] was 78%, the remaining binding at 0.1 µM [2] was 100% and the remaining binding at 0.1 µM [3] was 100%. For the same compound, the remaining binding at 0.1 µM [4] was 87%, the remaining binding at 0.1 µM [5] was 48% and the remaining binding at 0.1 µM [6] was 100%. It also gave a remaining binding at 0.1 µM [7] of 100%, a remaining binding at 0.1 µM [8] of 98% and a remaining binding at 0.1 µM [9] of 62%. The remaining binding at 0.1 µM [10] was 66%, the remaining binding at 0.1 µM [11] was 23% and the remaining binding at 0.1 µM [12] was 95%. The remaining binding at 0.1 µM [13] was 88%, the remaining binding at 0.1 µM [14] was 100% and the remaining binding at 0.1 µM [15] was 100%. The remaining binding at 0.1 µM [16] was 93%, the remaining binding at 0.1 µM [17] was 95% and the remaining binding at 0.1 µM [18] was 55%. For the same compound, the remaining binding at 0.1 µM [19] was 100%, the remaining binding at 0.1 µM [20] was 100% and the remaining binding at 0.1 µM [21] was 82%. The remaining binding at 0.1 µM [22] was 12%, the remaining binding at 0.1 µM [23] was 65% and the remaining binding at 0.1 µM [24] was 100%. For the same compound, the remaining binding at 0.1 µM [25] was 96%.
